Patent publication US11304929B2, “Tosylacetate based compounds and derivatives thereof as PHGDH inhibitors” (priority 2017, dated 2022)
Read-outs that look alike come from different tables or passages of the source.

Experiments:
[1] = biological target: PHGDH (Homo sapiens (Human), UniProt O43175); assay: 3-Phosphoglycerate Dehydrogenase (PHGDH) Fluorescence Intensity Assay, run at two NAD/3-PG ratios: PHGDH_HIGH_NAD/3-PG (250 μM NAD/500 μM 3-PG) and PHGDH_500_NAD/3-PG (500 μM NAD/500 μM 3-PG); format: biochemical
Text: This assay is used to identify compounds which inhibit the enzymatic activity of PHGDH which catalyzes the reaction of 3-Phosphoglycerate (3-PG) and NAD to 3-Phosphohydroxypyruvate and NADH.
The produced NADH is used in a coupled reaction for Diaphorase mediated reduction of Resazurin to Resorufin which can be measured in a Fluorescence Intensity readout.
The full length version of PHGDH enzyme was expressed in E. coli with an N-terminal HIS-tag and a TEV cleavage site.
The 3-Phosphoglycerate substrate was purchased from Sigma. NAD, Diaphorase and Resazurin were purchased from Sigma Aldrich.
Compounds are dispensed onto assay plates (black, low volume, flat bottom 384 well, Corning) using an Access Labcyte Workstation with the Labcyte Echo 55× from a DMSO solution. For the chosen highest assay concentration of 100 μM, 150 nl of compound solution are transferred from a 10 mM DMSO compound stock solution. A series of 11 concentrations (10 1:5 steps) is transferred for each compound.
The assay has been performed at two different NAD/3-PG ratios (final assay concentrations):
Plates are kept at room temperature. After 240 minutes incubation time the fluorescence signal is measured in a PerkinElmer Envision HTS Multilabel Reader with an excitation wavelength at 530-560 nm and an emission wavelength at 590 nm.
Each plate contains negative controls (diluted DMSO instead of test compound; reaction as described with PHGDH protein) and positive controls (diluted DMSO instead of test compound; reaction as described with buffer instead of PHGDH protein). Negative and positive control values are used for normalization.
IC50 values are calculated and analyzed in the MEGALAB IC50 application using a 4 parametric logistic model.

[2] = tested on: MDA-MB-468; assay: 13C3 Serine Assay MDA-MB-468 (13C3 serine levels by LC/MS/MS); format: cell-based
Experimental: Cells are cultivated in Medium I in a 75 mL flask.
Day 1: 5000 cells in 180 μL Medium I/well were seeded into a 96-well plate. Plates were incubated at 37° C. in a 5% CO2 incubator overnight.
Day 2: 10 mM DMSO stock from test compounds were serially pre-diluted with Medium I (See dilution scheme: for the first well 20 μL DMSO stock are diluted with 180 μL Medium I. From this 1000 μM solution further seven 1:3 (1+2) dilution are prepared with Medium I). 20 μL of these pre-dilutions are transferred in duplicates to the 96-well plate of Day 1. After incubation at 37° C. in a CO2 incubator for 1 hour the medium was removed, 100 μL PBS (tempered to room temperature) added and subsequently removed again.
180 μL Medium II were then added per well and 20 μL of serial dilutions of test compounds in Medium II (as described before) were transferred per well as above. After 180 minutes incubation at 37° C. in a CO2 incubator the medium was again cautiously removed.
After the addition of 100 μL methanol: H2O (80:20, v:v, pre-cooled to −80° C.) the plates were sealed immediately and frozen at −80° C.
At day of measurement plates were thawn, centrifuged and the supernatant evaporated. The samples were resuspended in 100 μl water for tandem mass spectrometry.
^13C3 serine levels were analyzed with LC/MS/MS using Multiple Reaction Monitoring (MRM).
IC50 values were computed from these values using a 4 parametric logistic model.

[3] = 250 μM NAD/500 μM 3-PG, read-out: IC50 (PHGDH_HIGH_NAD/3-PG)
[4] = Homo sapiens, MDA-MB-468 cells, 13C3 serine levels by LC/MS/MS, read-out: IC50 (13CSERINE)
[5] = Homo sapiens, MDA-MB-468, read-out: IC50 (13CSERINE)

Sequence of PHGDH (O43175 2-533 limits assumed): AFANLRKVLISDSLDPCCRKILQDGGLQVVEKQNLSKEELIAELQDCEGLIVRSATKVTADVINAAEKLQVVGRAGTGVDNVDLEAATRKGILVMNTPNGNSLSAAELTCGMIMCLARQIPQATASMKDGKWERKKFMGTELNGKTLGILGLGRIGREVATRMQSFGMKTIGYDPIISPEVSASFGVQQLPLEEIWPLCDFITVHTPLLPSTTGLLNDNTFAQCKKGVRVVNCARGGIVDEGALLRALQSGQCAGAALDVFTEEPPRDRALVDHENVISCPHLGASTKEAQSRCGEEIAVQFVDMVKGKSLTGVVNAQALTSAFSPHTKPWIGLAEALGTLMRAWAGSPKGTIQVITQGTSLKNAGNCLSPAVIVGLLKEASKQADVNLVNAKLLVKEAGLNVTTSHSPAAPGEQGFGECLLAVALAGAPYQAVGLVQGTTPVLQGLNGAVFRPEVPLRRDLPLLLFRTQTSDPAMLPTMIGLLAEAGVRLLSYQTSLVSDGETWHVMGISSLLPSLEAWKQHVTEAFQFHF

| SMILES | IC50 [1, 3] | IC50 [2, 4] | further results |
| --- | --- | --- | --- |
| COC(=O)CS(=O)(=O)c1ccc([C@@H](C)NC(=O)c2cc3c(Cl)c(Cl)c(C)cc3n2C)cc1 [Example 01-001, methyl 2-{4-[(1R)-1-[(4,5-dichloro-1,6-dimethyl-1H-indol-2-yl)formamido]ethyl]benzenesulfonyl}acetate] | 441 nM | 7 nM |  |
| CCOC(=O)CS(=O)(=O)c1ccc([C@@H](CO)NC(=O)c2cc3c(Cl)c(Cl)c(C)cc3n2C)cc1 [Example 01-002, ethyl 2-{4-[(1S)-1-[(4,5-dichloro-1,6-dimethyl-1H-indol-2-yl)formamido]-2-hydroxyethyl]benzenesulfonyl}acetate] | 169 nM |  | IC50 ([1]; 500 μM NAD/500 μM 3-PG, read-out: IC50 (PHGDH_500_NAD/3-PG)): 258 nM; IC50 [2, 5]: 2.9 nM |
| COC(=O)CS(=O)(=O)c1ccc([C@@H](C)NC(=O)c2cc3c(Cl)cc(-c4cnn(C)c4)cc3n2C)cc1 [Example 01-003, methyl 2-{4-[(1R)-1-{[4-chloro-1-methyl-6-(1-methyl-1H-pyrazol-4-yl)-1H-indol-2-yl]formamido}ethyl]benzenesulfonyl}acetate] | 905 nM | 109 nM |  |
| CCOC(=O)CS(=O)(=O)c1ccc([C@@H](C)NC(=O)c2cc3c(Cl)cc(C)cc3n2C)cc1 [Example 01-004, ethyl 2-{4-[(1R)-1-[(4-chloro-1,6-dimethyl-1H-indol-2-yl)formamido]ethyl]benzenesulfonyl}acetate] | 964 nM | 29.3 nM |  |
| CCOC(=O)CS(=O)(=O)c1ccc([C@@H](CO)NC(=O)c2cc3c(Cl)cc(C)cc3n2C)cc1 [Example 01-005, ethyl 2-{4-[(1S)-1-[(4-chloro-1,6-dimethyl-1H-indol-2-yl)formamido]-2-hydroxyethyl]benzenesulfonyl}acetate] | 223 nM | 3.3 nM |  |
| COC(=O)CS(=O)(=O)c1ccc([C@@H](C)NC(=O)c2cc3c(Cl)c(Cl)c(C)nc3n2C)cc1 [Example 01-006, methyl 2-{4-[(1R)-1-({4,5-dichloro-1,6-dimethyl-1H-pyrrolo[2,3-b]pyridin-2-yl}formamido)ethyl]benzenesulfonyl}acetate] | 485 nM | 88.8 nM |  |
| COC(=O)CS(=O)(=O)c1ccc([C@@H](CO)NC(=O)c2cc3c(Cl)c(Cl)c(C)cc3n2C)cc1 [Example 01-007, methyl 2-{4-[(1S)-1-[(4,5-dichloro-1,6-dimethyl-1H-indol-2-yl)formamido]-2-hydroxyethyl]benzenesulfonyl}acetate] | 121 nM | 5 nM |  |
| CCOC(=O)CS(=O)(=O)c1ccc([C@@H](C)NC(=O)c2cc3c(Cl)cc(-c4cnn(C)c4)cc3n2C)cc1 [Example 01-009, ethyl 2-{4-[(1R)-1-{[4-chloro-1-methyl-6-(1-methyl-1H-pyrazol-4-yl)-1H-indol-2-yl]formamido}ethyl]benzenesulfonyl}acetate] | 815 nM | 44.1 nM |  |
| CC(C)OC(=O)CS(=O)(=O)c1ccc([C@@H](C)NC(=O)c2cc3c(Cl)cc(-c4cnn(C)c4)cc3n2C)cc1 [Example 01-011, propan-2-yl 2-{4-[(1R)-1-{[4-chloro-1-methyl-6-(1-methyl-1H-pyrazol-4-yl)-1H-indol-2-yl]formamido}ethyl]benzenesulfonyl}acetate] | 1930 nM | 489 nM |  |
| COC(=O)CS(=O)(=O)c1ccc([C@@H](C)NC(=O)c2cc3c(Cl)cc(C)cc3n2C)cc1 [Example 01-012, methyl 2-{4-[(1R)-1-[(4-chloro-1,6-dimethyl-1H-indol-2-yl)formamido]ethyl]benzenesulfonyl}acetate] | 412 nM | 52.5 nM |  |
| COC(=O)CS(=O)(=O)c1ccc([C@@H](CO)NC(=O)c2cc3c(Cl)cc(C)cc3n2C)cc1 [Example 01-013, methyl 2-{4-[(1S)-1-[(4-chloro-1,6-dimethyl-1H-indol-2-yl)formamido]-2-hydroxyethyl]benzenesulfonyl}acetate] | 87 nM |  | IC50 [2, 5]: 8.3 nM |
| CCOC(=O)CS(=O)(=O)c1ccc([C@@H](C)NC(=O)c2cc3c(Cl)c(Cl)c(C)nc3n2C)cc1 [Example 01-016, ethyl 2-{4-[(1R)-1-({4,5-dichloro-1,6-dimethyl-1H-pyrrolo[2,3-b]pyridin-2-yl}formamido)ethyl]benzenesulfonyl}acetate] | 1090 nM | 72.1 nM |  |
| Cc1cc(Cl)c2cc(C(=O)N[C@H](C)c3ccc(S(=O)(=O)CC(=O)OC(C)C)cc3)n(C)c2c1 [Example 01-018, propan-2-yl 2-{4-[(1R)-1-[(4-chloro-1,6-dimethyl-1H-indol-2-yl)formamido]ethyl]benzenesulfonyl}acetate] |  | 66.3 nM |  |
| Cc1cc2c(cc(C(=O)N[C@H](CO)c3ccc(S(=O)(=O)CC(=O)OC(C)C)cc3)n2C)c(Cl)c1Cl [Example 01-021, propan-2-yl 2-{4-[(1S)-1-[(4,5-dichloro-1,6-dimethyl-1H-indol-2-yl)formamido]-2-hydroxyethyl]benzenesulfonyl}acetate] | 463 nM | 12.6 nM |  |
| COC(=O)CS(=O)(=O)c1ccc([C@@H](CO)NC(=O)c2cc3c(Cl)c(Cl)c(C)nc3n2C)cc1 [Example 01-023, methyl 2-{4-[(1S)-1-({4,5-dichloro-1,6-dimethyl-1H-pyrrolo[2,3-b]pyridin-2-yl}formamido)-2-hydroxyethyl]benzenesulfonyl}acetate] | 216 nM | 0.8 nM |  |
| COC(=O)CS(=O)(=O)c1ccc([C@@H](C)NC(=O)c2cc3c(Cl)cc(C)cc3n2C)nc1 [Example 01-029, methyl 2-({6-[(1R)-1-[(4-chloro-1,6-dimethyl-1H-indol-2-yl)formamido]ethyl]pyridin-3-yl}sulfonyl)acetate] |  | 51.4 nM |  |
| C[C@@H](NC(=O)c1cc(-c2ccc(F)cc2)nn1C)c1ccc(S(=O)(=O)CC(=O)NOCCN2CCOCC2)cc1 [Example 15-001, 3-(4-fluorophenyl)-1-methyl-N-[(1R)-1-[4-({[2-(morpholin-4-yl)ethoxy]carbamoyl}methanesulfonyl)phenyl]ethyl]-1H-pyrazole-5-carboxamide] |  | 55400 nM |  |
| C[C@@H](NC(=O)c1cc(-c2ccc(F)cc2)nn1C)c1ccc(S(=O)(=O)CC(=O)NOC2CCN(C)CC2)cc1 [Example 15-002, 3-(4-fluorophenyl)-1-methyl-N-[(1R)-1-[4-({[(1-methylpiperidin-4-yl)oxy]carbamoyl}methanesulfonyl)phenyl]ethyl]-1H-pyrazole-5-carboxamide] |  | 85300 nM |  |
| Cc1cc(Cl)c2cc(C(=O)N[C@H](C)c3ccc(S(=O)(=O)CC(=O)CCC(=O)O)cc3)n(C)c2c1 [Example 15-003, 5-{4-[(1R)-1-[(4-chloro-1,6-dimethyl-1H-indol-2-yl)formamido]ethyl]benzenesulfonyl}-4-oxopentanoic acid] |  | 9640 nM |  |
| CONC(=O)CS(=O)(=O)c1ccc([C@@H](C)NC(=O)c2cc(-c3ccc(F)cc3)nn2C)cc1 [Example 15-004, 3-(4-fluorophenyl)-N-[(1R)-1-{4-[(methoxycarbamoyl)methanesulfonyl]phenyl}ethyl]-1-methyl-1H-pyrazole-5-carboxamide] |  | 6270 nM |  |
| CCOC(=O)CS(=O)(=O)c1ccc([C@@H](C)NC(=O)c2cc(-n3ccc4ccccc43)nn2C)cc1 [Example 15-005, ethyl 2-{4-[(1R)-1-{[3-(1H-indol-1-yl)-1-methyl-1H-pyrazol-5-yl]formamido}ethyl]benzenesulfonyl}acetate] |  | 309 nM |  |
| CCOC(=O)CS(=O)(=O)c1ccc([C@@H](C)NC(=O)c2cc(-n3ncc4ccccc43)nn2C)cc1 [Example 15-006, ethyl 2-{4-[(1R)-1-{[3-(1H-indazol-1-yI)-1-methyl-1H-pyrazol-5-yl]formamido}ethyl]benzenesulfonyl}acetate] |  |  | IC50 ([2]; MDA-MB-468 cells, 13C3 serine levels by LC/MS/MS, read-out: IC50 (13CSERINE)): 73.3 nM |
| Cc1cc(Cl)c2cc(C(=O)N[C@H](C)c3ccc(S(=O)(=O)C(C)(C)C(N)=O)cc3)n(C)c2c1 [Example 15-007, N-[(1R)-1-[4-(1-carbamoyl-1-methylethanesulfonyl)phenyl]ethyl]-4-chloro-1,6-dimethyl-1H-indole-2-carboxamide] |  | 3220 nM |  |
| Cc1cc(Cl)c2cc(C(=O)N[C@H](C)c3ccc(S(=O)(=O)CC(=O)CS(=O)(=O)c4ccc([C@@H](C)NC(=O)c5cc6c(Cl)cc(C)cc6n5C)cc4)cc3)n(C)c2c1 [Example 15-008, 4-chloro-N-[(1R)-1-[4-(3-{4-[(1R)-1-[(4-chloro-1,6-dimethyl-1H-indol-2-yl)formamido]ethyl]benzenesulfonyl}-2-oxopropanesulfonyl)phenyl]ethyl]-1,6-dimethyl-1H-indole-2-carboxamide] |  | 11.9 nM |  |
| Cc1cc(Cl)c2cc(C(=O)N[C@H](C)c3ccc(S(=O)(=O)CC(=O)N(C)C)cc3)n(C)c2c1 [Example 15-009, 4-chloro-N-[(1R)-1-{4-[(dimethylcarbamoyl)methanesulfonyl]phenyl}ethyl]-1,6-dimethyl-1H-indole-2-carboxamide] |  | 3390 nM |  |
| CCOC(=O)CS(=O)(=O)c1ccc([C@@H](C)NC(=O)c2cc(-c3ccccc3)n(C)n2)cc1 [Example 15-010, ethyl 2-{4-[(1R)-1-[(1-methyl-5-phenyl-1H-pyrazol-3-yl)formamido]ethyl]benzenesulfonyl}acetate] |  | 1300 nM |  |
| Cc1cc(Cl)c2cc(C(=O)N[C@H](C)c3ccc(S(=O)(=O)CC(=O)OCCOC(=O)CS(=O)(=O)c4ccc([C@@H](C)NC(=O)c5cc6c(Cl)cc(C)cc6n5C)cc4)cc3)n(C)c2c1 [Example 15-011, 2-[(2-{4-[(1R)-1-[(4-chloro-1,6-dimethyl-1H-indol-2-yl)formamido]ethyl]benzenesulfonyl}acetyl)oxy]ethyl 2-{4-[(1R)-1-[(4-chloro-1,6-dimethyl-1H-indol-2-yl)formamido]ethyl]benzenesulfonyl}acetate] |  | 249 nM |  |
